Measurements published in patent US20240148821A1, “PHARMACEUTICAL USE OF CYCLIC PEPTIDE COMPOUND” (CHUGAI SEIYAKU KABUSHIKI KAISHA, priority 2021, published 2024).
Numbered stars: 1 amine (or outer) side, 2 acyl side, 3 side chain; on linkers, the order of the positions; unused ones are H or OH. Bridge positions count the residues as written; N and C are the ends. Square brackets hold non-standard residues; d marks the D form. Peptide text beside a SMILES is read from it. * marks the point of attachment. hPhe(3,5-F2-4-CF3) = N[C@@H](CCc1cc(F)c(C(F)(F)F)c(F)c1)C(=O)O; hPhe(3-Cl-4-CF3) = N[C@@H](CCc1ccc(C(F)(F)F)c(Cl)c1)C(=O)O; hPhe(3-F,4-CF3) = N[C@@H](CCc1ccc(C(F)(F)F)c(F)c1)C(=O)O; NMePhe(4-CF3) = CN[C@@H](Cc1ccc(C(F)(F)F)cc1)C(=O)O; NPrAsp = CCCN([C@@H](CC(=O)[*:3])C(=O)[*:2])[*:1]; X24 = COc1cncc(C[C@@H](C(=O)[*:2])N(C)[*:1])c1; Phe(4-CHF2) = N[C@@H](Cc1ccc(C(F)F)cc1)C(=O)O; NMePhe(4-Cl) = CN[C@@H](Cc1ccc(Cl)cc1)C(=O)O; NMePhe(4-Me) = CN[C@@H](Cc1ccc(C)cc1)C(=O)O; NMedβ3hAla = C[C@H](CC(=O)[*:2])N(C)[*:1]; NMeGly(cPent) = CN[C@H](C(=O)O)C1CCCC1; NMeAla(cPr) = CN[C@@H](CC1CC1)C(=O)O; NMeGly(cBu) = CN[C@H](C(=O)O)C1CCC1; NMeCha = CN[C@@H](CC1CCCCC1)C(=O)O; Hyp = O=C(O)[C@@H]1C[C@@H](O)CN1; NMeChg = CN[C@H](C(=O)O)C1CCCCC1; NMeI = CC[C@H](C)[C@H](NC)C(=O)O; NMeD = CN[C@@H](CC(=O)O)C(=O)O; NMeL = CN[C@@H](CC(C)C)C(=O)O; NMeV = CN[C@H](C(=O)O)C(C)C; d(β3hA) = C[C@@H](N)CC(=O)O; NMeS = CN[C@@H](CO)C(=O)O; NPhGly = O=C(O)CNc1ccccc1; Morpholide = C1CN(*)CCO1; NMeA = CN[C@@H](C)C(=O)O; NMeAib = CNC(C)(C)C(=O)O; Nle = CCCC[C@H](N)C(=O)O; Piperidide = C1CCN(*)CC1; Pyrrolidide = C1CCN(*)C1; dNMeA = CN[C@H](C)C(=O)O; Ac5c = NC1(C(=O)O)CCCC1; Aze = O=C(O)[C@@H]1CCN1; Cyclobutyl = C1CC(*)C1; Sar = CNCC(=O)O; Propyl = CCC*

Key:
[1] = molecular target: protein-protein interaction between Kras and SOS1 (biotin-tagged human Kras loaded with GDP, His-tagged human SOS1) (Homo sapiens (Human), UniProt P01116, G12D); test: Protein-protein interaction inhibition between Kras and SOS1 (KrasG12D-SOS PPI) using AlphaScreen; format: biochemical; details: AlphaScreen; biotin-tagged human Kras loaded with GDP, His-tagged human SOS1; read-out: KRAS G12D-SOS PPI IC50;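 also: kras produced in E. coli, Ni-coupled donor beads and streptavidin acceptor beads, excitation 680 nm with emission detected at 520–620 nm via singlet oxygen transfer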
[2] = tested on: Human pancreatic cancer cell line AsPC-1 (G12D mutation Kras); test: AsPC-1 cell growth inhibition (AsPC-1 CGI); format: cell-based; details: read-out: AsPC-1 cell growth inhibition, 50% growth inhibitory concentration (IC50 value); 96 hours, CellTiter-Glo, values classified in ranges
Experimental: Test compounds were serially dilated with dimethyl sulfoxide, and 200 nL was then dispensed to a U-bottom 96-well plate using Labcyte Echo. […] The cell suspension was dispensed to a. plate containing a test compound at 100 μL per well and incubated at 37° C. in a 5% carbon dioxide gas incubator. 96 hours later, 80 μL of CellTiter-Glo (Promega) was added to each well and fluorescence was measured.

SMILES	IC50 [1]	IC50 [2]
CC[C@H](C)[C@@H]1NC(=O)[C@H](CC(C)C)N(C)C(=O)C[C@@H](C)N(C)C(=O)[C@H]([C@@H](C)CC)NC(=O)C(C)(C)N(C)C(=O)[C@H](CC(C)C)NC(=O)[C@H](CCc2ccc(C(F)(F)F)c(F)c2)NC(=O)CN(C)C(=O)[C@H](Cc2ccc(Cl)cc2)N(C)C(=O)CN(C)C(=O)CN(C)C1=O [Compound 800] (cyclo(I[Sar][Sar][NMePhe(4-Cl)][Sar][hPhe(3-F,4-CF3)]L[NMeAib]I[NMedβ3hAla][NMeL]))	86 nM	> 500 nM
CCCC[C@@H]1NC(=O)[C@H](CC(C)C)N(C)C(=O)C[C@@H](C(=O)N2CCCCC2)N(C)C(=O)[C@H](C(C)C)N(C)C(=O)C2(CCCC2)NC(=O)[C@@H]2CCCN2C(=O)[C@H](CCc2ccc(C(F)(F)F)c(Cl)c2)NC(=O)CN(C)C(=O)[C@H](CC2CCCCC2)N(C)C(=O)[C@@H]2CCN2C(=O)[C@H](C)N(C)C1=O [Compound 1823] ([NMeL][Nle][NMeA][Aze][NMeCha][Sar][hPhe(3-Cl-4-CF3)]P[Ac5c][NMeV][NMeD]-Piperidide; lactam N-11)	59 nM	> 500 nM
CC[C@H](C)[C@@H]1NC(=O)[C@H](C)N(C)C(=O)C[C@@H](C(=O)N2CCCCC2)N(C)C(=O)[C@H](C2CCC2)N(C)C(=O)C2(CCCC2)NC(=O)CN(c2ccccc2)C(=O)[C@H](CCc2ccc(C(F)(F)F)c(Cl)c2)NC(=O)CN(C)C(=O)[C@H](CC2CCCCC2)N(C)C(=O)CN(C)C(=O)CN(C)C1=O [Compound 2151] ([NMeA]I[Sar][Sar][NMeCha][Sar][hPhe(3-Cl-4-CF3)][NPhGly][Ac5c][NMeGly(cBu)][NMeD]-Piperidide; lactam N-11)	2.5 nM	> 500 nM
CC[C@H](C)[C@@H]1NC(=O)[C@H](CC(C)C)N(C)C(=O)C[C@@H](C(=O)N2CCOCC2)N(C)C(=O)[C@H]([C@@H](C)CC)N(C)C(=O)C2(CCCC2)NC(=O)[C@@H]2CCCN2C(=O)[C@H](CCc2ccc(C(F)(F)F)c(F)c2)NC(=O)CN(C)C(=O)[C@H](Cc2ccc(C)cc2)N(C)C(=O)[C@@H]2CCN2C(=O)[C@H](C)N(C)C1=O [Compound 47] ([NMeL]I[NMeA][Aze][NMePhe(4-Me)][Sar][hPhe(3-F,4-CF3)]P[Ac5c][NMeI][NMeD]-Morpholide; lactam N-11)	1.5 nM	≤ 20 nM
CC[C@H](C)[C@@H]1NC(=O)[C@H](CC(C)C)N(C)C(=O)C[C@@H](C(=O)N(C)C)N(C)C(=O)[C@H]([C@@H](C)CC)N(C)C(=O)C2(CCCC2)NC(=O)[C@@H]2CCCN2C(=O)[C@H](CCc2cc(F)c(C(F)(F)F)c(F)c2)NC(=O)CN(C)C(=O)[C@H](Cc2ccc(C)cc2)N(C)C(=O)[C@@H]2CCN2C(=O)[C@H](C)N(C)C1=O [Compound 1080] ([NMeL]I[NMeA][Aze][NMePhe(4-Me)][Sar][hPhe(3,5-F2-4-CF3)]P[Ac5c][NMeI][NMeD]-NMe2; lactam N-11)	1 nM	≤ 20 nM
CC[C@H](C)[C@@H]1NC(=O)[C@H](CC(C)C)N(C)C(=O)C[C@@H](C)N(C)C(=O)[C@H](CC(C)C)NC(=O)C(C)(C)N(C)C(=O)[C@H](Cc2ccc(C(F)F)cc2)NC(=O)[C@H](CCc2ccc(C(F)(F)F)c(F)c2)NC(=O)CN(C)C(=O)[C@H](CC2CCCCC2)N(C)C(=O)CN(C)C(=O)CN(C)C1=O [Compound 858] (cyclo(I[Sar][Sar][NMeCha][Sar][hPhe(3-F,4-CF3)][Phe(4-CHF2)][NMeAib]L[NMedβ3hAla][NMeL]))	330 nM	> 500 nM
CC[C@H](C)[C@@H]1NC(=O)[C@H](CC(C)C)N(C)C(=O)C[C@@H](C)N(C)C(=O)[C@H](CC(C)C)NC(=O)C(C)(C)N(C)C(=O)[C@H](CC(C)C)NC(=O)[C@H](CCc2cc(F)c(C(F)(F)F)c(F)c2)NC(=O)CN(C)C(=O)[C@H](Cc2ccc(Cl)cc2)N(C)C(=O)CN(C)C(=O)CN(C)C1=O [Compound 687] (cyclo(I[Sar][Sar][NMePhe(4-Cl)][Sar][hPhe(3,5-F2-4-CF3)]L[NMeAib]L[NMedβ3hAla][NMeL]))	16 nM	> 500 nM
CCCN1C(=O)[C@H](C2CCCC2)N(C)C(=O)C2(CCCC2)NC(=O)[C@@H]2CCCN2C(=O)[C@H](CCc2ccc(C(F)(F)F)c(Cl)c2)NC(=O)CN(C)C(=O)[C@H](C2CCC2)N(C)C(=O)[C@@H]2CCN2C(=O)[C@H](C)N(C)C(=O)[C@H]([C@@H](C)CC)NC(=O)[C@H](CC(C)C)N(C)C(=O)C[C@H]1C(=O)N1CCCCC1 [Compound 524] ([NMeL]I[NMeA][Aze][NMeGly(cBu)][Sar][hPhe(3-Cl-4-CF3)]P[Ac5c][NMeGly(cPent)][NPrAsp]-Piperidide; lactam N-11)	82 nM	> 500 nM
CC[C@H](C)[C@@H]1NC(=O)[C@H](CC(C)C)N(C)C(=O)C[C@@H](C(=O)N2CCCCC2)N(C)C(=O)[C@H](C2CCCC2)N(C)C(=O)C2(CCCC2)NC(=O)[C@@H]2CCCN2C(=O)[C@H](CCc2ccc(C(F)(F)F)c(Cl)c2)NC(=O)CN(C)C(=O)[C@H](COC2CCC2)N(C)C(=O)[C@@H]2CCN2C(=O)[C@H](C)N(C)C1=O [Compound 835] ([NMeL]I[NMeA][Aze][NMeS](Cyclobutyl)[Sar][hPhe(3-Cl-4-CF3)]P[Ac5c][NMeGly(cPent)][NMeD]-Piperidide; lactam N-11)	0.54 nM	≤ 20 nM
CC[C@H](C)[C@@H]1NC(=O)[C@H](CC(C)C)N(C)C(=O)C[C@@H](C(=O)N2CCCCC2)N(C)C(=O)[C@H](C2CCCCC2)N(C)C(=O)C2(CCCC2)NC(=O)[C@H](Cc2cncc(OC)c2)N(C)C(=O)[C@H](CCc2ccc(C(F)(F)F)c(Cl)c2)NC(=O)CN(C)C(=O)[C@H](CC2CCCCC2)N(C)C(=O)CN(C)C(=O)CN(C)C1=O [Compound 887] ([NMeL]I[Sar][Sar][NMeCha][Sar][hPhe(3-Cl-4-CF3)][X24][Ac5c][NMeChg][NMeD]-Piperidide; lactam N-11)	6.2 nM	> 500 nM
CC[C@H](C)[C@@H]1NC(=O)[C@H](C)N(C)C(=O)C[C@@H](C(=O)N2CCOCC2)N(C)C(=O)[C@H](C(C)C)N(C)C(=O)C2(CCCC2)NC(=O)[C@@H]2CCCN2C(=O)[C@H](CCc2ccc(C(F)(F)F)c(Cl)c2)NC(=O)[C@@H](C)N(C)C(=O)[C@H](CC2CCCCC2)N(C)C(=O)[C@@H]2CCN2C(=O)[C@H](C)N(C)C1=O [Compound 1664] ([NMeA]I[NMeA][Aze][NMeCha][dNMeA][hPhe(3-Cl-4-CF3)]P[Ac5c][NMeV][NMeD]-Morpholide; lactam N-11)	8.8 nM	> 500 nM
CCO[C@@H]1C[C@H]2C(=O)NC3(CCCC3)C(=O)N(C)[C@@H]([C@@H](C)CC)C(=O)N(C)[C@H](C)CC(=O)N(C)[C@@H](CC(C)C)C(=O)N[C@@H]([C@@H](C)CC)C(=O)N(C)[C@@H](C)C(=O)N3CC[C@H]3C(=O)N(C)[C@@H](Cc3ccc(C(F)(F)F)cc3)C(=O)N(C)CC(=O)N[C@@H](CCc3cc(F)c(C(F)(F)F)c(F)c3)C(=O)N2C1 [Compound 362] (cyclo([Ac5c][NMeI][NMedβ3hAla][NMeL]I[NMeA][Aze][NMePhe(4-CF3)][Sar][hPhe(3,5-F2-4-CF3)][Hyp](Et)))	0.66 nM	≤ 20 nM
CC[C@H](C)[C@@H]1NC(=O)[C@H](CC(C)C)N(C)C(=O)C[C@@H](C(=O)N2CCCCC2)N(C)C(=O)[C@H](CC2CC2)N(C)C(=O)C2(CCCC2)NC(=O)[C@@H]2CCCN2C(=O)[C@H](CCc2ccc(C(F)(F)F)c(Cl)c2)NC(=O)CN(C)C(=O)[C@H](CC2CCCCC2)N(C)C(=O)[C@@H]2CCN2C(=O)[C@H](C)N(C)C1=O [Compound 172] ([NMeL]I[NMeA][Aze][NMeCha][Sar][hPhe(3-Cl-4-CF3)]P[Ac5c][NMeAla(cPr)][NMeD]-Piperidide; lactam N-11)	4 nM	> 500 nM
CCCOC[C@H]1C(=O)N(C)CC(=O)N[C@@H](CCc2ccc(C(F)(F)F)c(Cl)c2)C(=O)N2CCC[C@H]2C(=O)NC2(CCCC2)C(=O)N(C)[C@@H](C2CCCC2)C(=O)N(C)[C@H](C(=O)N2CCCC2)CC(=O)N(C)[C@@H](CC(C)C)C(=O)N[C@@H]([C@@H](C)CC)C(=O)N(C)[C@@H](C)C(=O)N2CC[C@H]2C(=O)N1C [Compound 836] ([NMeL]I[NMeA][Aze][NMeS](Propyl)[Sar][hPhe(3-Cl-4-CF3)]P[Ac5c][NMeGly(cPent)][NMeD]-Pyrrolidide; lactam N-11)	0.66 nM	≤ 20 nM
CC[C@H](C)[C@@H]1NC(=O)[C@H](CC(C)C)N(C)C(=O)C[C@@H](C)NC(=O)[C@H]([C@@H](C)CC)N(C)C(=O)C2(CCCC2)NC(=O)[C@@H]2CCCN2C(=O)[C@H](CCc2ccc(C(F)(F)F)c(Cl)c2)NC(=O)CN(C)C(=O)[C@H](Cc2ccc(C)cc2)N(C)C(=O)[C@@H]2CCN2C(=O)[C@H](C)N(C)C1=O [Compound 1661] (cyclo([Ac5c][NMeI][d(β3hA)][NMeL]I[NMeA][Aze][NMePhe(4-Me)][Sar][hPhe(3-Cl-4-CF3)]P))	2.7 nM	≤ 20 nM
CC[C@H](C)[C@@H]1NC(=O)[C@H](C(C)C)N(C)C(=O)C[C@@H](C)NC(=O)[C@H](CC(C)C)N(C)C(=O)C2(CCCC2)NC(=O)[C@H](CC(C)C)N(C)C(=O)[C@H](CCc2ccc(C(F)(F)F)c(Cl)c2)NC(=O)CN(C)C(=O)[C@H](CC2CCCCC2)N(C)C(=O)CN(C)C(=O)CN(C)C1=O [Compound 892] (cyclo([Ac5c][NMeL][d(β3hA)][NMeV]I[Sar][Sar][NMeCha][Sar][hPhe(3-Cl-4-CF3)][NMeL]))	68 nM	> 500 nM
